Inconclusive results and toxic doses are left out. No stated cut-off is given here; in the data, active means T/C of 150% or more; inactive means T/C below 125%.
Tested on: L1210 leukemia ip in BDF1 mice, survival T/C
Test: NCI In Vivo Anticancer Drug Screen. Data for tumor model L1210 Leukemia (intraperitoneal) in B6D2F1 (BDF1) mice
Conditions: endpoint: mean survival time, higher = longer survival
Method in brief: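 Ratio derived from survival: compound-dosed mice over vehicle-dosed mice, all bearing a transplantable tumor.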

[1] = dose: 75.0 mg/kg/injection, schedule: Q01DX001 (ip), vehicle: other
[2] = dose: 150.0 mg/kg/injection, schedule: Q01DX001 (ip), vehicle: other
[3] = dose: 300.0 mg/kg/injection, schedule: Q01DX001 (ip), vehicle: other
[4] = dose: 100.0 mg/kg/injection, schedule: Q01DX009 (ip), vehicle: Klucel (hydroxypropylcellulose) (HPC)
[5] = dose: 100.0 mg/kg/injection, schedule: Q04DX002 (ip), vehicle: Klucel (hydroxypropylcellulose) (HPC)
[6] = dose: 200.0 mg/kg/injection, schedule: Q04DX002 (ip), vehicle: Klucel (hydroxypropylcellulose) (HPC)
[7] = dose: 400.0 mg/kg/injection, schedule: Q04DX002 (ip), vehicle: Klucel (hydroxypropylcellulose) (HPC)
[8] = dose: 100.0 mg/kg/injection, schedule: Q04DX003 (ip), vehicle: Klucel (hydroxypropylcellulose) (HPC)
[9] = dose: 200.0 mg/kg/injection, schedule: Q01DX009 (ip), vehicle: Klucel (hydroxypropylcellulose) (HPC)
[10] = dose: 200.0 mg/kg/injection, schedule: Q04DX003 (ip), vehicle: Klucel (hydroxypropylcellulose) (HPC)
[11] = dose: 400.0 mg/kg/injection, schedule: Q01DX009 (ip), vehicle: Klucel (hydroxypropylcellulose) (HPC)
[12] = dose: 400.0 mg/kg/injection, schedule: Q04DX003 (ip), vehicle: Klucel (hydroxypropylcellulose) (HPC)
[13] = dose: 100.0 mg/kg/injection, schedule: Q01DX009 (ip), vehicle: saline with Tween-80
[14] = dose: 100.0 mg/kg/injection, schedule: Q04DX003 (ip), vehicle: saline with Tween-80
[15] = dose: 200.0 mg/kg/injection, schedule: Q04DX003 (ip), vehicle: saline with Tween-80
[16] = dose: 400.0 mg/kg/injection, schedule: Q04DX003 (ip), vehicle: saline with Tween-80
[17] = dose: 100.0 mg/kg/injection, schedule: Q01DX009 (ip), vehicle: saline
[18] = dose: 400.0 mg/kg/injection, schedule: Q01DX009 (ip), vehicle: saline

Measured: T/C

CN1CCC(=O)c2ccccc21
inactive: [1] 97 % of control | [2] 100 % of control | [3] 100 % of control

Brc1cccc2ccccc12
inactive: dose: 25.0 mg/kg/injection, schedule: Q01DX009 (ip), vehicle: Klucel (hydroxypropylcellulose) (HPC) 89 % of control | dose: 50.0 mg/kg/injection, schedule: Q01DX009 (ip), vehicle: Klucel (hydroxypropylcellulose) (HPC) 86 % of control | [4] 99 % of control | [5] 112 % of control | [6] 105 % of control | [7] 119 % of control

NC(N)=NC(N)=Nc1ccc2ccccc2c1[N+](=O)[O-]
inactive: [4] 94 % of control | [8] 97 % of control | [9] 100 % of control | [10] 100 % of control | [11] 98 % of control | [12] 95 % of control

CCOC(=O)c1c(-c2ccc(OC)c(OC)c2OCc2ccccc2)c(C)c(C)[nH]c1=O
inactive: dose: 75.0 mg/kg/injection, schedule: Q01DX001 (ip), vehicle: carboxymethylcellulose (CMC) 102 % of control | dose: 150.0 mg/kg/injection, schedule: Q01DX001 (ip), vehicle: carboxymethylcellulose (CMC) 102 % of control | dose: 300.0 mg/kg/injection, schedule: Q01DX001 (ip), vehicle: carboxymethylcellulose (CMC) 102 % of control

O=S(=O)(c1ccccc1)C(CC(S(=O)(=O)c1ccccc1)S(=O)(=O)c1ccccc1)S(=O)(=O)c1ccccc1
inactive: dose: 100.0 mg/kg/injection, schedule: Q04DX002 (ip), vehicle: saline with Tween-80 119 % of control | dose: 200.0 mg/kg/injection, schedule: Q04DX002 (ip), vehicle: saline with Tween-80 97 % of control | dose: 400.0 mg/kg/injection, schedule: Q04DX002 (ip), vehicle: saline with Tween-80 90 % of control

CC(=O)Nc1cc([N+](=O)[O-])ccc1CC(O)c1ccccc1 (stereo unspecified)
inactive: [4] 109 % of control | [8] 97 % of control | [9] 111 % of control | [10] 97 % of control | [11] 94 % of control | [12] 100 % of control

COC(=O)C(CSCSC)NC(=O)/C=C\c1ccccc1 (stereo unspecified)
inactive: [13] 88 % of control | [14] 97 % of control | dose: 200.0 mg/kg/injection, schedule: Q01DX009 (ip), vehicle: saline with Tween-80 88 % of control | [15] 97 % of control | dose: 400.0 mg/kg/injection, schedule: Q01DX009 (ip), vehicle: saline with Tween-80 96 % of control | [16] 94 % of control

CC(=O)Nc1ccc(S(=O)(=O)Oc2ccc([N+](=O)[O-])cc2)cc1
inactive: dose: 25.0 mg/kg/injection, schedule: Q01DX009 (ip), vehicle: saline 94 % of control | dose: 50.0 mg/kg/injection, schedule: Q01DX009 (ip), vehicle: saline 96 % of control | [17] 94 % of control | [18] 100 % of control

Cc1ccc(C(=O)c2ccc(C)cc2)cc1
inactive: dose: 12.5 mg/kg/injection, schedule: Q04DX002 (ip), vehicle: Klucel (hydroxypropylcellulose) (HPC) 91 % of control | dose: 25.0 mg/kg/injection, schedule: Q04DX002 (ip), vehicle: Klucel (hydroxypropylcellulose) (HPC) 94 % of control | dose: 50.0 mg/kg/injection, schedule: Q04DX002 (ip), vehicle: Klucel (hydroxypropylcellulose) (HPC) 97 % of control | [4] 101 % of control | dose: 100.0 mg/kg/injection, schedule: Q04DX002 (ip), vehicle: saline 101 % of control | [8] 100 % of control | [9] 97 % of control | dose: 200.0 mg/kg/injection, schedule: Q04DX002 (ip), vehicle: saline 101 % of control | [10] 89 % of control | [11] 98 % of control | [12] 100 % of control

O=C1CC(=O)N2C=CC=CC2=N1
inactive: [17] 101 % of control | dose: 200.0 mg/kg/injection, schedule: Q01DX009 (ip), vehicle: saline 95 % of control | [18] 92 % of control

OC1(c2ccc(F)cc2)c2ccccc2-c2ccccc21
inactive: [1] 96 % of control | [2] 96 % of control

CC(=O)OC1CCC(N)CC1 (stereo unspecified)
inactive: dose: 100.0 mg/kg/injection, schedule: Q01DX001 (ip), vehicle: other 98 % of control | dose: 200.0 mg/kg/injection, schedule: Q01DX001 (ip), vehicle: other 96 % of control | dose: 400.0 mg/kg/injection, schedule: Q01DX001 (ip), vehicle: other 96 % of control

CCCCNCC#N
inactive: dose: 50.0 mg/kg/injection, schedule: Q01DX001 (ip), vehicle: saline 110 % of control

CC1(C)CCC2CCCCC2O1 (stereo unspecified)
inactive: dose: 100.0 mg/kg/injection, schedule: Q01DX001 (ip), vehicle: saline 102 % of control | dose: 200.0 mg/kg/injection, schedule: Q01DX001 (ip), vehicle: saline 98 % of control | dose: 400.0 mg/kg/injection, schedule: Q01DX001 (ip), vehicle: saline 96 % of control

CC1(C)OCC(C(NC(=O)c2ccccc2)C(OC(=O)c2ccccc2)C2COC(C)(C)O2)O1 (stereo unspecified)
inactive: [5] 90 % of control | [6] 90 % of control | [7] 90 % of control

N#Cc1ccc[n+](Cc2ccc3c(c2)OCO3)c1
inactive: dose: 75.0 mg/kg/injection, schedule: Q01DX001 (ip), vehicle: saline 106 % of control | dose: 150.0 mg/kg/injection, schedule: Q01DX001 (ip), vehicle: saline 106 % of control

C[n+]1ccc(/C=C\Nc2ccccc2)cc1
inactive: [1] 94 % of control | [2] 94 % of control | [3] 94 % of control

S=C1NC2CCCc3ccccc3C2O1 (stereo unspecified)
inactive: [8] 111 % of control | [10] 113 % of control | [12] 107 % of control

S=P(CP(c1ccccc1)c1ccccc1)(c1ccccc1)c1ccccc1
inactive: dose: 100.0 mg/kg/injection, schedule: Q04DX002 (sc), vehicle: olive oil, sesame oil, peanut oil 100 % of control | dose: 200.0 mg/kg/injection, schedule: Q04DX002 (sc), vehicle: olive oil, sesame oil, peanut oil 107 % of control | dose: 400.0 mg/kg/injection, schedule: Q04DX002 (sc), vehicle: olive oil, sesame oil, peanut oil 104 % of control

O=C(c1ccccc1)C(Cl)C(=O)c1ccccc1
inactive: dose: 12.5 mg/kg/injection, schedule: Q04DX003 (ip), vehicle: Klucel (hydroxypropylcellulose) (HPC) 94 % of control | dose: 25.0 mg/kg/injection, schedule: Q04DX003 (ip), vehicle: Klucel (hydroxypropylcellulose) (HPC) 115 % of control | dose: 50.0 mg/kg/injection, schedule: Q04DX003 (ip), vehicle: Klucel (hydroxypropylcellulose) (HPC) 96 % of control | dose: 100.0 mg/kg/injection, schedule: Q01DX001 (ip), vehicle: Klucel (hydroxypropylcellulose) (HPC) 98 % of control | [8] 100 % of control | dose: 200.0 mg/kg/injection, schedule: Q01DX001 (ip), vehicle: Klucel (hydroxypropylcellulose) (HPC) 97 % of control | dose: 400.0 mg/kg/injection, schedule: Q01DX001 (ip), vehicle: Klucel (hydroxypropylcellulose) (HPC) 95 % of control

CC(C)(CO)CN1CCCCC1
inactive: dose: 50.0 mg/kg/injection, schedule: Q01DX009 (ip), vehicle: saline with Tween-80 93 % of control | [13] 93 % of control

CC(=O)Nc1cccc(NC(C)=O)n1
inactive: [14] 94 % of control | [15] 104 % of control | [16] 100 % of control
